From patent US20260355331A1, “CEREBLON DEGRADER CONJUGATES, AND USES THEREOF” (GENENTECH, INC., priority 2022, published 2026) come the findings set out here.

The subject of data set [1] is proteases. Description: protease cleavage of cDAC made with cDLI. Particulars: presence of proteases; cDAC of cDLI-6 variants. It is filed as in vitro ADME.
For data set [2], the system named is KPL-4 cells (HER2+). Description: cell proliferation assay (CellTiter-Glo), KPL-4. Type of data set: cell-based. The conditions noted are these: KPL4, 120 h; cereblon degrader compound, 5 days; read-out: IC50 anti-proliferative. From the text: (§1) The CellTiter-Glo® Luminescent Cell Viability Assay is a commercially available (Promega Corp., Madison, WI), homogeneous assay method based on the recombinant expression of Coleoptera luciferase (U.S. Pat. Nos. 5,583,024; 5,674,713; 5,700,670). This cell proliferation assay determines the number of viable cells in culture based on quantitation of the ATP present, an indicator of metabolically active cells (Crouch et al (1993) J. Immunol. Meth. 160:81-88; U.S. Pat. No. 6,602,677). The CellTiter-Glo® Assay was conducted in 96 well format, making it amenable to automated high-throughput screening (HTS) (Cree et al (1995) AntiCancer Drugs 6:398-404). […] Data can be recorded by luminometer or CCD camera imaging device. The luminescence output is expressed as relative light units (RLU). […]
(§2) Efficacy of the cDAC was measured by a cell proliferation assay employing the following protocol ([…] GLO™ Luminescent Cell Viability Assay, Promega Corp. Technical Bulletin TB288; Mendoza et al. (2002) Cancer Res. 62:5485-5488): • 1. […] The plate was incubated at room temperature for 5 minutes to stabilize the luminescence signal. • 8. Luminescence was recorded and reported in graphs as % activity where RLU (relative luminescence units) was normalized to controls (no antibody control minus no cell control). […]
For orientation: ATP-based viability assays read luminescence as a measure of living cells.

The test system of data set [3] is SK-BR-3 cells (HER2+). Description: cell proliferation assay (CellTiter-Glo), SK-BR-3. Type of data set: cell-based. Particulars: Homo sapiens, SK-BR-3, 120 h; cereblon degrader compound, 5 days; read-out: IC50 anti-proliferative.
From the text: as §1, §2

Data set [4] in a line: stability of cDLI under conjugation conditions. Particulars: pH 8.5, 3 and 10 equivalents, 3 hours and overnight; LC/MS. It is filed as physicochemical.
Data set [5] in a line: cDLI stability in whole blood. Type of data set: in vitro ADME.
Data set [6] can be described thus: reductive cleavage / release of lenalidomide in a model study. It is filed as in vitro ADME. Particulars: reduction. From the text: The nitro group of para-nitrobenzyloxymethyl lenalidomide cDLI-7 was reduced to amine in a model study. […] The disulfide group of para-nitropyridyl disulfidemethyl lenalidomide cDLI-8 was reduced in a model study.
The nature of data set [7]: release of lenalidomide and hydrolysis of sulfonyl-thio cDLI. It is filed as in vitro ADME. The conditions noted are these: with and without methyl adjacent to the glutarimide nitrogen.

“6-(2,5-dioxo-2,5-dihydro-1H-pyrrol-1-yl)-N-((2S)-1-(((2S)-1-((4-((2,6-dioxo-3-(1-oxoisoindolin-2-yl)piperidin-1-yl)methyl)phenyl)amino)-1-oxopropan-2-yl)amino)-3-methyl-1-oxobutan-2-yl)hexanamide [cDLI-6]”: in data set [1], the “cleavage by proteases (in words)” value is reported as “failed to cleave in the presence of proteases”. A word on the IC50: it is the midpoint of a concentration-inhibition curve. Turning to `Cn1cc2c3c(c[nH]c3c1=O)CN(c1ncc(F)cc1F)c1cc(C(=O)NCCCCCCCNc3cccc4c3CN(C3CCC(=O)NC3=O)C4=O)c(CS(C)(=O)=O)cc1-2` (stereo not drawn) [cD-5, 4-(3,5-difluoropyridin-2-yl)-N-(7-((2-(2,6-dioxopiperidin-3-yl)-1-oxoisoindolin-4-yl)amino)heptyl)-10-methyl-7-((methylsulfonyl)methyl)-11-oxo-3,4,10,11-tetrahydro-1H-1,4,10-triazadibenzo[cd,f]azulene-6-carboxamide], the IC50 is 0.65 nM in data set [2] and 0.41 nM in data set [3].

`CC(C)(C)OC(=O)Nc1cccc2c1CN(C1CCC(=O)N(C(=O)OCC(C)(C)SS(C)(=O)=O)C1=O)C2=O` (stereo not drawn) [cDLI-1, 2-methyl-2-((methylsulfonyl)thio)propyl 3-(4-((tert-butoxycarbonyl)amino)-1-oxoisoindolin-2-yl)-2,6-dioxopiperidine-1-carboxylate]: the “stability under conjugation conditions (in words)” value in data set [4] is reported as “too unstable under these conditions for conjugation”.

For `O=C1C=CC(=O)N1CCSN1C(=O)CCC(N2Cc3ccccc3C2=O)C1=O` (stereo not drawn) [cDLI-4, 1-((2-(2,5-dioxo-2,5-dihydro-1H-pyrrol-1-yl)ethyl)thio)-3-(1-oxoisoindolin-2-yl)piperidine-2,6-dione], in data set [5], the “stability in whole blood (in words)” value is “not stable in whole blood”. `CC(CN1C(=O)C=CC1=O)SN1C(=O)CCC(N2Cc3ccccc3C2=O)C1=O` (stereo not drawn) [cDLI-5, 1-((1-(2,5-dioxo-2,5-dihydro-1H-pyrrol-1-yl)propan-2-yl)thio)-3-(1-oxoisoindolin-2-yl)piperidine-2,6-dione]: in data set [5], the “stability in whole blood (in words)” value is given as “not stable in whole blood”. With `O=C1CCC(N2Cc3ccccc3C2=O)C(=O)N1COCc1ccc([N+](=O)[O-])cc1` (stereo not drawn) [cDLI-7, 1-(((4-nitrobenzyl)oxy)methyl)-3-(1-oxoisoindolin-2-yl)piperidine-2,6-dione], the “cleavage to release lenalidomide (in words)” value in data set [6] is given as “No cleavage of the para-aminobenzyloxy group was observed”. `O=C1CCC(N2Cc3ccccc3C2=O)C(=O)N1CSSc1ccc([N+](=O)[O-])cn1` (stereo not drawn) [cDLI-8, 1-(((5-nitropyridin-2-yl)disulfaneyl)methyl)-3-(1-oxoisoindolin-2-yl)piperidine-2,6-dione]: in data set [6], the “cleavage to release lenalidomide (in words)” value is given as “No cleavage of the disulfide group was observed”.

As to `CC(OC(=O)OCN1C(=O)CCC(N2Cc3ccccc3C2=O)C1=O)C(C)SS(C)(=O)=O` (stereo not drawn) [cDLI-9, S-(3-((((2,6-dioxo-3-(1-oxoisoindolin-2-yl)piperidin-1-yl)methoxy)carbonyl)oxy)butan-2-yl)methanesulfonothioate], the “stability under conjugation conditions (in words)” value in data set [4] was “Hydrolysis of the carbonate bond was observed”. In data set [7], the “release of lenalidomide (in words)” value is given as “cleaved to release detectable lenalidomide” and the “stability (in words)” value is “not stable, generating hydrolysis products”. For the molecule `CC(C)(CSS(C)(=O)=O)OC(=O)OCN1C(=O)CCC(N2Cc3ccccc3C2=O)C1=O` (stereo not drawn) [cDLI-10, S-(2-((((2,6-dioxo-3-(1-oxoisoindolin-2-yl)piperidin-1-yl)methoxy)carbonyl)oxy)-2-methylpropyl) methanesulfonothioate], the “stability under conjugation conditions (in words)” value in data set [4] is “Hydrolysis of the carbonate bond was observed”.
